Data published in patent publication US10377717B2, “Farnesoid X receptor agonists and uses thereof” (Metacrine, Inc., priority 2015, dated 2019).

How the values were obtained:
hFXR [1] = molecular target: T1, hFXR (Homo sapiens (Human), UniProt Q96RI1); experiment: In Vitro FXR Assay (PGL3), luciferase reporter in transfected CV-1 cells; format: cell-based; details: PGL3-ECRE*6-luc reporter, hFXR/hRXR, 18 hrs incubation
Protocol: CV-1 cells were seeded at a density of 2,000,000 cells in a T175 flask with DMEM+10% charcoal double-stripped FBS and incubated at 37° C. in a 5% CO2 for 18 h (O/N).
After 18 h of incubation, the medium in the T175 flask was changed with fresh DMEM+10% charcoal super-stripped serum.
To prepare the transfection reaction mixture, the transfection reagent (X-tremeGENE HP from Roche, Cat #06 366 236 001) was added in to a 1.5 mL microcentrifuge tube labelled “A” at a ratio of 1:3 (DNA in μg: transfection reagent in μL). OptiMEM medium (Life Technologies, Cat #31985-062) was added accordingly to provide a total volume of 1 mL. The transfection reaction mixture was then briefly vortexed and incubated at room temperature for 5 minutes.
In a separate 1.5 mL microcentrifuge tube labelled “B”, 100 μL OptiMEM and plasmids XPD90Gal pCMXhFXRfl, pCMXhRXRfl+PGL3-ECRE*6-luc+CMX-YFP in the ratio 2 μg: 2 μg:18 μg:3 μg were added. This microcentrifuge tube “B” was then briefly vortexed and incubated at room temperature for 5 minutes.
The total volume in tube labelled “A” was then transferred in to tube labelled “B.” The mixture was then briefly vortexed and the transfection:DNA complex was then incubated for about 15-20 minutes at room temperature.
Following incubation, the transfection reagent/DNA mixture complex was then added to cells in the T175 flask and the cells were incubated at […] (O/N) at 37° C. in 5% CO2.
In a 96 well plate, a half logarithmic serial dilution was prepared. OptiMEM was used as the diluent. Using any of one of the compounds described herein, a compound stock solution of 10 mM was prepared. An initial 1:100 dilution was made into the first well for a final concentration of 100 μM. The final concentrations in the 96-well plate was prepared by using a multichannel pipette to transfer 5 μL of the diluted compound to 384-well plate in quadruplicate.
Cells in T175 flask were trypsinized and cells were resuspending in 40 mL phenol red free DMEM+10% charcoal super-stripped FBS. Typically, one T175 flask was sufficient to seed two 384 well plates. CV-1 cells were seeded at 45 μL cell suspension/well using a multichannel pipet or a 384 multidrop dispenser. The cells were then incubated for 18 hrs, overnight.
After removing the plates from the incubator, the medium was flicked out of plate and 384 well plate was turned upside down onto paper towel. The remaining medium was gently tapped out. 15 μL lysis buffer was then added to each well using a multichannel pipet or a 384 well multi-drop dispenser. After incubation for 10 minutes at room temperature on shaker, 30 μL Luciferase buffer was added to each well. Luminescence counts were taken immediately using the Perkin Elmer Envision.
The ability of the compounds disclosed herein to […] FXR activity was quantified and the respective EC50 value was determined. Fex=fexaramine.

hFXR [2] = molecular target: T1, hFXR; experiment: In Vitro FXR Assay (TK), luciferase reporter in transfected CV-1 cells; format: cell-based; details: TK-ECRE-luc reporter, hFXR/hRXR, 18 hrs, maximum efficacy <25% of Fexaramine control classified as '+'
How it was run: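 CV-1 cells transiently co-transfected with hFXR, hRXR, TK-ECRE-luc and pCMX-YFP plasmids in charcoal-stripped serum medium. Serially diluted compounds added, cells incubated 18 h at 37° C, then lysed and luminescence read.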

T1 sequence (Q96RI1 whole entry): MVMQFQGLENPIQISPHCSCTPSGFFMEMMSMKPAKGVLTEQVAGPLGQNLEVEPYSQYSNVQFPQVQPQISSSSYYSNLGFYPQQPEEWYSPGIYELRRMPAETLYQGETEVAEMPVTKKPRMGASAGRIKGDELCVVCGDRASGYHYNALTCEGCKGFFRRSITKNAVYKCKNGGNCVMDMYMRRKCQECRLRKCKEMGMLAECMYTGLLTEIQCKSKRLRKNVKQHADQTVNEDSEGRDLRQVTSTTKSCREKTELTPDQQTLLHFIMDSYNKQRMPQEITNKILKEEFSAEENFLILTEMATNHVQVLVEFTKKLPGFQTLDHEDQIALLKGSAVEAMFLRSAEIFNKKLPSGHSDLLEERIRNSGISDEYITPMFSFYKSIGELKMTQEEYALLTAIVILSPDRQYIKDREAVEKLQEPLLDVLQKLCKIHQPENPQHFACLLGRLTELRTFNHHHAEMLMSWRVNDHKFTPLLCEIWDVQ
T1 sequence (P19793 whole entry partner): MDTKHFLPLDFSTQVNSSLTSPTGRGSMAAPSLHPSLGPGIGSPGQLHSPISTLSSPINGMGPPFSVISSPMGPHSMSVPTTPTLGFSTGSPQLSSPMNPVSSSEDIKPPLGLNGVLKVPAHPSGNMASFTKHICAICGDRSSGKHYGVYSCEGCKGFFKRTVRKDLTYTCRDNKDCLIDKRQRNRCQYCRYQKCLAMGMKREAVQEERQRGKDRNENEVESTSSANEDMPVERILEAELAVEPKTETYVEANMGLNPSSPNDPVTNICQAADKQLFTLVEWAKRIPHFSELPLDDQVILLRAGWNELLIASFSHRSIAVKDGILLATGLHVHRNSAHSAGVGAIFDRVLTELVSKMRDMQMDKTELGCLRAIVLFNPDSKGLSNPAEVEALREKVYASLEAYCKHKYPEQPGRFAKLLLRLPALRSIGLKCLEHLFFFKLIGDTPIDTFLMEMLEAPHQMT

Cmpd/Fex (ratio of the EC50 for the test compound relative to the EC50 of the Fexaramine control) (hFXR [1])	EC50 (hFXR [2]) [µM]	SMILES
+++ (‘+++’ means Cmpd/Fex < 10)	≤ 1	COC(=O)/C=C/c1ccnc(N(Cc2ccc(-c3ccc(N(C)C)cc3)cc2)C(=O)C2CCCCC2)c1 [Compound 1, (E)-Methyl 3-(2-(N-((4′-(dimethylamino)-[1,1′-biphenyl]-4-yl)methyl)cyclohexanecarboxamido)pyridin-4-yl)acrylate]
++ (‘++’ means Cmpd/Fex > 10 & < 100)	≥ 10	COC(=O)/C=C/c1cccc(N(Cc2ccc(-c3ccc(N(C)C)cc3)cc2)C(=O)C2CCCCC2)n1 [Compound 2, (E)-Methyl 3-(6-(N-((4′-(dimethylamino)-[1,1′-biphenyl]-4-yl)methyl)cyclohexanecarboxamido)pyridin-2-yl)acrylate]
+++ (‘+++’ means Cmpd/Fex < 10)	1 to 10	COC(=O)/C=C/c1cc(N(Cc2ccc(-c3ccc(N(C)C)cc3)cc2)C(=O)C2CCCCC2)ccn1 [Compound 3, (E)-Methyl 3-(4-(N-((4′-(dimethylamino)-[1,1′-biphenyl]-4-yl)methyl)cyclohexanecarboxamido)pyridin-2-yl)acrylate]
+++ (‘+++’ means Cmpd/Fex < 10)	1 to 10	COC(=O)/C=C/c1ccnc(N(Cc2ccc(-c3ccc(N(C)C)cc3)cc2)C(=O)C2CCOCC2)c1 [Compound 4, (E)-Methyl 3-(2-(N-((4′-(dimethylamino)-[1,1′-biphenyl]-4-yl)methyl)tetrahydro-2H-pyran-4-carboxamido)pyridin-4-yl)acrylate]
+ (‘+’ means Cmpd/Fex > 100)	1 to 10	COC(=O)/C=C/c1ccnc(N(Cc2ccc(-c3ccc(N(C)C)nc3)cc2)C(=O)C2CCOCC2)c1 [Compound 6, (E)-Methyl 3-(2-(N-(4-(6-(dimethylamino)pyridin-3-yl)benzyl)tetrahydro-2H-pyran-4-carboxamido)pyridin-4-yl)acrylate]
+ (‘+’ means Cmpd/Fex > 100)	1 to 10	COC(=O)/C=C/c1ccnc(N(Cc2ccc(-c3ccc(N(C)C)nc3)cc2)C(=O)[C@H]2CC[C@H](O)CC2)c1 [Compound 7, (E)-Methyl 3-(2-(trans-N-(4-(6-(dimethylamino)pyridin-3-yl)benzyl)-4-hydroxycyclohexanecarboxamido)pyridin-4-yl)acrylate]
++ (‘++’ means Cmpd/Fex > 10 & < 100)	1 to 10	COC(=O)c1ccc2c(N(Cc3ccc(-c4ccc(N(C)C)cc4)cc3)C(=O)C3CCCCC3)cccc2c1 [Compound 8, Methyl 5-(N-((4′-(dimethylamino)-[1,1′-biphenyl]-4-yl)methyl)cyclohexanecarboxamido)-2-naphthoate]
++ (‘++’ means Cmpd/Fex > 10 & < 100)	≥ 10	CN(C)c1ccc(-c2ccc(CN(C(=O)C3CCCCC3)c3cccc4ccccc34)cc2)cc1 [Compound 9, N′-((4′-(Dimethylamino)-[1,1′-biphenyl]-4-yl)methyl)-N-(naphthalen-1-yl)cyclohexanecarboxamide]
